Laboratory results reported in PubChem BioAssay AID258 (DTP/NCI, 2004).
Toxic doses and inconclusive results are not listed. The calls were made as follows: active = survival T/C of 150% or more; inactive = T/C below 125% in these data.

Tested on: CD2F1 mice, L1210 leukemia sc, survival T/C
Assay: NCI In Vivo Anticancer Drug Screen. Data for tumor model L1210 Leukemia (subcutaneous) in CD2F1 (CDF1) mice
Settings: endpoint: median survival time, vehicle: saline, higher = longer survival
Method in brief: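 Read-out: survival or tumor size. Value = treated (T) / vehicle control (C). Transplantable tumor in mice.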

Measured: T/C

CC(=O)Nc1ccc2nc3ccc(NC(C)=O)cc3[n+](-c3ccccc3)c2c1
inactive: dose: 8.4 mg/kg/injection, schedule: Q01DX Z (ip) 90 % of control | dose: 14.0 mg/kg/injection, schedule: Q01DX Z (ip) 95 % of control | dose: 14.0 mg/kg/injection, schedule: Q01DX Z (sc) 100 % of control | dose: 23.0 mg/kg/injection, schedule: Q01DX Z (ip) 90 % of control | dose: 23.0 mg/kg/injection, schedule: Q01DX Z (sc) 100 % of control | dose: 39.0 mg/kg/injection, schedule: Q01DX Z (ip) 100 % of control | dose: 39.0 mg/kg/injection, schedule: Q01DX Z (sc) 100 % of control | dose: 65.0 mg/kg/injection, schedule: Q01DX Z (ip) 100 % of control | dose: 65.0 mg/kg/injection, schedule: Q01DX Z (sc) 105 % of control | dose: 108.0 mg/kg/injection, schedule: Q01DX Z (ip) 100 % of control | dose: 108.0 mg/kg/injection, schedule: Q01DX Z (sc) 100 % of control | dose: 180.0 mg/kg/injection, schedule: Q01DX Z (sc) 110 % of control
